# Reference: US20040198831A1, “Remedial agent for arthrosis deformans” (priority 2001, published 2004)
# Tests used:
# model of OA in rabbits = details: reported in Inflamm Res 44, Suppl 2, S117-118 (1995); cited from earlier work
# [1] = tested on: partial meniscectomy model in rabbits; experiment: partial meniscectomy model of osteoarthritis in rabbits (erosion area); type: in vivo, rabbit; details: female rabbits, 1, 3 and 10 mg/kg per day, administered twice a day, 7 days after operation, FIG. 1
# Protocol: Efficiencies of the compounds in the present invention on osteoarthrosis were proven, for example, by an experiment of a partial meniscectomy model in rabbits.
# Female rabbits (Kbs: NZW (Healthy)) were preliminarily bred for a week and subjected to ablative operation of meniscus by the following method.
# Each animal was anesthetized by a subcutaneous injection of 2% parenteral celactal (0.05 ml/kg) to the poll and an intravenous injection of nembutal (20 mg/kg) to the marginal auricle. Their right knees were disinfected with Iodine tincture that dilutes five times with distilled water. If necessary, local anesthesia was performed by dropping 2% of parenteral xylocaine to incised part.
# Then, skins and articular capsules outside knees of right hind legs were incised at right angle to patellar ligament, fibular collateral ligaments and sesamoid ligaments were transected. In that case, parenteral solution of bosmin was dropped for the arrest of hemorrhage. […]
# After anesthesia by an intravenous injection of parenteral nembutal (40 mg/kg) to marginal auricle, the animals were made to die by venesection and gathered their right knees of joint part. […] After collecting all samples and masking them, their erosion areas were measured with a stereoscopic microscope. […]
# rat = experiment: toxicity, single oral administration to rat; type: in vivo; details: oral administration to rat once
# Protocol: It was considered that the toxicities of the compounds represented by the formula (I) could be very low and safe to use as a medicine. For example, the lowest lethal dose in oral administration of compound (II) to rat once was 2000 mg/kg or more.
SMILES,effect on a model of OA in rabbits (model of OA in rabbits),inhibitory effect on erosion area of thigh bone [1],lowest lethal dose (rat) [mg/kg]
"COc1ccc(S(=O)(=O)N(Cc2cccnc2)[C@@H](C(=O)NO)C(C)C)cc1.Cl [CGS-27023A, 2(R)-[N-(4-methoxyphenylsulfonyl)-N-(3-pyridylmethyl)amino]-3-methylbutanohydroxamic acid hydrochloride]",could be effect,–,–
"C[C@@H](C[C@@H](CO)NC(=O)c1ccc(Oc2ccccc2)cc1)C(=O)NO [compound (II), N-hydroxy-5-hydroxy-2(S)-methyl-4(S)-(4-phenoxybenzoyl)aminopentanamide]",–,inhibitory effect,≥ 2000
